Reference: patent US7612064B2, “Sulfopyrroles” (Takeda Pharmaceutical Company Limited, priority 2003, dated 2009)
Values belong to the compound of their own block, whether it stands above or below them.

Tests used:
HeLa = assay: MTS proliferation assay; format: cell-based, human; details: 72 h
Procedure: (§1) The assay is performed in 96 well tissue culture plates. […] The test compounds are added in 20 μl complete medium containing max 5% DMSO. The final compound concentrations in the assays are 10 μM, 3 μM, 1 μM and 0.3 μM, respectively. The assay plates are incubated for 72 h at culture conditions. The MTS reagent is prepared according to the manufacturer's protocol (Promega G1111). 20 μl MTS reagent are added to each well, the assay plates are quickly spun and incubated for another 3 h at culture conditions. Subsequently, the plates are shortly shacked and absorption measured with a microplate-reader at 492 nm.

Jurkat = assay: MTS proliferation assay; format: cell-based, human; details: 72 h
Procedure: as §1

MRC5 = assay: MTS proliferation assay; format: cell-based; details: MRC5, 72 h
Procedure: as §1

[1] = Hoechst 33342 nuclear staining; format: cell-based; details: for Hoechst 33342 nuclear staining score, HeLa: HeLa cells; for Hoechst 33342 nuclear staining score, Jurkat: Jurkat cells; for Hoechst 33342 nuclear staining score, H460: H460 cells; for Hoechst 33342 nuclear staining score, Jily: Jily cells; for Hoechst 33342 nuclear staining score, MRC5: MRC5 cells;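 on all read-outs here: apoptotic nuclei scored 0 none 1 weak under 50% of cells 2 strong over 50% of cells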
Procedure: This assay is performed in 96 well tissue culture plates. Appropriate number of cells (adherent cells: 3-5*10^3, suspension cells: 8-10*10^3) are being seeded out in 80 μl complete medium. Adherent cells are incubated for 24 h for proper spreading out before addition of test compounds while suspension cells are immediately treated with test compounds after seeding out. The test compounds are added in 20 μl complete medium containing max 5% DMSO. […] […] The assay plates are then further incubated for 30 min and subsequently analyzed with a standard inverted fluorescence microscope.
The readout allows the determination of the fraction of apoptotic nuclei as well as other morphological criteria specific for apoptosis as a function of the treatment. The following scores are used: 0 relating to no activity, 1 relating to weak activity comprising less than 50% of the cells and score 2 relating to strong activity comprising more than 50% of the cells.

[2] = conc 0.1 (final concentrations in μM), 24 h or 48 h incubation
[3] = conc 0.3 (final concentrations in μM), 24 h or 48 h incubation
[4] = conc 1 (final concentrations in μM), 24 h or 48 h incubation
[5] = conc 3 (final concentrations in μM), 24 h or 48 h incubation

IC50 (HeLa): > 1 µM | IC50 (Jurkat): > 1 µM
Structure (SMILES): CCN(CC)CCCNCc1cc(-c2ccc3c(c2)OCO3)n(S(=O)(=O)c2ccc(C)cc2)c1 [Example 34]
IC50 (MRC5): > 1 µM | Hoechst 33342 nuclear staining score, HeLa [1, 2]: 0 | Hoechst 33342 nuclear staining score, HeLa [1, 3]: 0 | Hoechst 33342 nuclear staining score, HeLa [1, 4]: 0 | Hoechst 33342 nuclear staining score, HeLa [1, 5]: 0 | Hoechst 33342 nuclear staining score, Jurkat [1, 2]: 0 | Hoechst 33342 nuclear staining score, Jurkat [1, 3]: 0 | Hoechst 33342 nuclear staining score, Jurkat [1, 4]: 0 | Hoechst 33342 nuclear staining score, Jurkat [1, 5]: 0

IC50 (HeLa): > 1 µM | IC50 (Jurkat): < 1 µM
Structure (SMILES): COc1cc(-c2cc(CNc3ccc4[nH]nnc4c3)cn2S(=O)(=O)c2ccc(C)cc2)cc(OC)c1OC [Example 69]
IC50 (MRC5): > 1 µM | Hoechst 33342 nuclear staining score, H460 ([1]; conc 0.1): 0 | Hoechst 33342 nuclear staining score, H460 ([1]; conc 0.3): 0 | Hoechst 33342 nuclear staining score, H460 ([1]; conc 1): 0 | Hoechst 33342 nuclear staining score, H460 ([1]; conc 3): 2 (strong activity comprising more than 50% of the cells) | Hoechst 33342 nuclear staining score, HeLa ([1]; conc 0.1): 0 | Hoechst 33342 nuclear staining score, HeLa ([1]; conc 0.3): 0 | Hoechst 33342 nuclear staining score, HeLa ([1]; conc 1): 0 | Hoechst 33342 nuclear staining score, HeLa ([1]; conc 3): 2 (strong activity comprising more than 50% of the cells) | Hoechst 33342 nuclear staining score, Jily ([1]; conc 0.1): 0 | Hoechst 33342 nuclear staining score, Jily ([1]; conc 0.3): 0 | Hoechst 33342 nuclear staining score, Jily ([1]; conc 1): 1 (weak activity comprising less than 50% of the cells) | Hoechst 33342 nuclear staining score, Jily ([1]; conc 3): 2 (strong activity comprising more than 50% of the cells) | Hoechst 33342 nuclear staining score, Jurkat ([1]; conc 0.1): 0 | Hoechst 33342 nuclear staining score, Jurkat ([1]; conc 0.3): 0 | Hoechst 33342 nuclear staining score, Jurkat ([1]; conc 1): 2 (strong activity comprising more than 50% of the cells) | Hoechst 33342 nuclear staining score, Jurkat ([1]; conc 3): 2 (strong activity comprising more than 50% of the cells) | Hoechst 33342 nuclear staining score, MRC5 ([1]; conc 0.1): 0 | Hoechst 33342 nuclear staining score, MRC5 ([1]; conc 0.3): 0 | Hoechst 33342 nuclear staining score, MRC5 ([1]; conc 1): 0 | Hoechst 33342 nuclear staining score, MRC5 ([1]; conc 3): 2 (strong activity comprising more than 50% of the cells) | Hoechst 33342 nuclear staining score, PBLs ([1]; conc 0.1): 0 | Hoechst 33342 nuclear staining score, PBLs ([1]; conc 0.3): 0 | Hoechst 33342 nuclear staining score, PBLs ([1]; conc 1): 0 | Hoechst 33342 nuclear staining score, PBLs ([1]; conc 3): 0

IC50 (HeLa): > 1 µM | IC50 (Jurkat): < 1 µM
Structure (SMILES): Cc1ccc(S(=O)(=O)n2cc(-c3ccc(C#N)cc3)cc2-c2cccs2)cc1 [Example 54]
IC50 (MRC5): > 1 µM | Hoechst 33342 nuclear staining score, H460 [1, 2]: 0 | Hoechst 33342 nuclear staining score, H460 [1, 3]: 0 | Hoechst 33342 nuclear staining score, H460 [1, 4]: 0 | Hoechst 33342 nuclear staining score, H460 [1, 5]: 0 | Hoechst 33342 nuclear staining score, HeLa [1, 2]: 0 | Hoechst 33342 nuclear staining score, HeLa [1, 3]: 0 | Hoechst 33342 nuclear staining score, HeLa [1, 4]: 0 | Hoechst 33342 nuclear staining score, HeLa [1, 5]: 0 | Hoechst 33342 nuclear staining score, Jily [1, 2]: 0 | Hoechst 33342 nuclear staining score, Jily [1, 3]: 0 | Hoechst 33342 nuclear staining score, Jily [1, 4]: 0 | Hoechst 33342 nuclear staining score, Jily [1, 5]: 0 | Hoechst 33342 nuclear staining score, Jurkat [1, 2]: 0 | Hoechst 33342 nuclear staining score, Jurkat [1, 3]: 0 | Hoechst 33342 nuclear staining score, Jurkat [1, 4]: 0 | Hoechst 33342 nuclear staining score, Jurkat [1, 5]: 0 | Hoechst 33342 nuclear staining score, MRC5 [1, 2]: 0 | Hoechst 33342 nuclear staining score, MRC5 [1, 3]: 0 | Hoechst 33342 nuclear staining score, MRC5 [1, 4]: 0 | Hoechst 33342 nuclear staining score, MRC5 [1, 5]: 0 | Hoechst 33342 nuclear staining score, PBLs [1, 2]: 0 | Hoechst 33342 nuclear staining score, PBLs [1, 3]: 0 | Hoechst 33342 nuclear staining score, PBLs [1, 4]: 0 | Hoechst 33342 nuclear staining score, PBLs [1, 5]: 0

IC50 (HeLa): > 1 µM | IC50 (Jurkat): > 1 µM
Structure (SMILES): CCN(CC)CCN(C)Cc1cc(-c2ccc3c(c2)OCO3)n(S(=O)(=O)c2ccc(C)cc2)c1 [Example 19]
IC50 (MRC5): > 1 µM | Hoechst 33342 nuclear staining score, HeLa [1, 2]: 0 | Hoechst 33342 nuclear staining score, HeLa [1, 3]: 0 | Hoechst 33342 nuclear staining score, HeLa [1, 4]: 0 | Hoechst 33342 nuclear staining score, HeLa [1, 5]: 0 | Hoechst 33342 nuclear staining score, Jurkat [1, 2]: 0 | Hoechst 33342 nuclear staining score, Jurkat [1, 3]: 0 | Hoechst 33342 nuclear staining score, Jurkat [1, 4]: 0 | Hoechst 33342 nuclear staining score, Jurkat [1, 5]: 0

IC50 (Jurkat): > 1 µM
Structure (SMILES): Cc1ccc(S(=O)(=O)n2cc(CNC(CN3CCN(C)CC3)c3ccccc3)cc2-c2ccc3c(c2)OCO3)cc1 (stereo not shown) [Example 24]
IC50 (MRC5): > 1 µM | Hoechst 33342 nuclear staining score, HeLa [1, 2]: 0 | Hoechst 33342 nuclear staining score, HeLa [1, 3]: 0 | Hoechst 33342 nuclear staining score, HeLa [1, 4]: 0 | Hoechst 33342 nuclear staining score, HeLa [1, 5]: 0 | Hoechst 33342 nuclear staining score, Jurkat [1, 2]: 0 | Hoechst 33342 nuclear staining score, Jurkat [1, 3]: 0 | Hoechst 33342 nuclear staining score, Jurkat [1, 4]: 0 | Hoechst 33342 nuclear staining score, Jurkat [1, 5]: 0

The next lines start with the compound.

Structure (SMILES): Cc1ccc(S(=O)(=O)n2cc(CNc3ccc(N4CCOCC4)cc3)cc2-c2ccc3c(c2)OCO3)cc1.Cl [Example 14]
IC50 (HeLa): > 1 µM | IC50 (Jurkat): > 1 µM | IC50 (MRC5): > 1 µM | Hoechst 33342 nuclear staining score, HeLa [1, 2]: 0 | Hoechst 33342 nuclear staining score, HeLa [1, 3]: 0 | Hoechst 33342 nuclear staining score, HeLa [1, 4]: 0 | Hoechst 33342 nuclear staining score, HeLa [1, 5]: 2 (strong activity comprising more than 50% of the cells) | Hoechst 33342 nuclear staining score, Jurkat [1, 2]: 0 | Hoechst 33342 nuclear staining score, Jurkat [1, 3]: 0 | Hoechst 33342 nuclear staining score, Jurkat [1, 4]: 0 | Hoechst 33342 nuclear staining score, Jurkat [1, 5]: 2 (strong activity comprising more than 50% of the cells)

Structure (SMILES): COc1cc(-c2cc(CNc3ccc(S(N)(=O)=O)cc3)cn2S(=O)(=O)c2ccc(C)cc2)cc(OC)c1OC [Example 70]
IC50 (HeLa): > 1 µM | IC50 (Jurkat): < 1 µM | IC50 (MRC5): > 1 µM | Hoechst 33342 nuclear staining score, H460 ([1]; conc 0.1): 0 | Hoechst 33342 nuclear staining score, H460 ([1]; conc 0.3): 0 | Hoechst 33342 nuclear staining score, H460 ([1]; conc 1): 0 | Hoechst 33342 nuclear staining score, H460 ([1]; conc 3): 2 (strong activity comprising more than 50% of the cells) | Hoechst 33342 nuclear staining score, HeLa ([1]; conc 0.1): 0 | Hoechst 33342 nuclear staining score, HeLa ([1]; conc 0.3): 0 | Hoechst 33342 nuclear staining score, HeLa ([1]; conc 1): 0 | Hoechst 33342 nuclear staining score, HeLa ([1]; conc 3): 0 | Hoechst 33342 nuclear staining score, Jily ([1]; conc 0.1): 0 | Hoechst 33342 nuclear staining score, Jily ([1]; conc 0.3): 0 | Hoechst 33342 nuclear staining score, Jily ([1]; conc 1): 0 | Hoechst 33342 nuclear staining score, Jily ([1]; conc 3): 2 (strong activity comprising more than 50% of the cells) | Hoechst 33342 nuclear staining score, Jurkat ([1]; conc 0.1): 0 | Hoechst 33342 nuclear staining score, Jurkat ([1]; conc 0.3): 0 | Hoechst 33342 nuclear staining score, Jurkat ([1]; conc 1): 2 (strong activity comprising more than 50% of the cells) | Hoechst 33342 nuclear staining score, Jurkat ([1]; conc 3): 2 (strong activity comprising more than 50% of the cells) | Hoechst 33342 nuclear staining score, MRC5 ([1]; conc 0.1): 0 | Hoechst 33342 nuclear staining score, MRC5 ([1]; conc 0.3): 0 | Hoechst 33342 nuclear staining score, MRC5 ([1]; conc 1): 0 | Hoechst 33342 nuclear staining score, MRC5 ([1]; conc 3): 2 (strong activity comprising more than 50% of the cells) | Hoechst 33342 nuclear staining score, PBLs ([1]; conc 0.1): 0 | Hoechst 33342 nuclear staining score, PBLs ([1]; conc 0.3): 0 | Hoechst 33342 nuclear staining score, PBLs ([1]; conc 1): 0 | Hoechst 33342 nuclear staining score, PBLs ([1]; conc 3): 0

Structure (SMILES): CN1CCN(CCCNCc2cc(-c3ccc4c(c3)OCO4)n(S(=O)(=O)c3cccc(Cl)c3)c2)CC1 [Example 4, 1-(m-Chlorobenzenesulfonyl)-2-(3,4-methylenedioxyphenyl)-4-(N-[3-{4-methylpiperazinyl}-propyl]-aminomethyl)-pyrrole]
IC50 (HeLa): > 1 µM | IC50 (Jurkat): > 1 µM | IC50 (MRC5): > 1 µM

Structure (SMILES): NC(=O)c1ccc(-c2cc(-c3ccc4c(c3)OCO4)n(S(=O)(=O)c3cccc(Cl)c3)c2)cc1 [Example 5, p-(1-[m-chlorobenzenesulfonyl]-2-[3,4-methylenedioxyphenyl]-4pyrrolyl)-benzamide]
IC50 (HeLa; Homo sapiens): > 1 µM | IC50 (Jurkat; Homo sapiens): > 1 µM | IC50 (MRC5; Homo sapiens): > 1 µM

Structure (SMILES): COc1cc(-c2cc(CNCCCN3CCN(C)CC3)cn2S(=O)(=O)c2ccc(C)cc2)cc(OC)c1OC [Example 3]
IC50 (HeLa): > 1 µM | IC50 (Jurkat): > 1 µM | IC50 (MRC5): > 1 µM
